pEC50: −log10 of the molar value.
Molecular target: recombinant human S1P1 receptor (Homo sapiens, UniProt P21453)
Experiment: GTPγS assay to determine EC50 values
Assay type: biochemical
Conditions: GTPγS binding, membrane preparations of CHO cells expressing recombinant human S1P1 receptor
Method: GTPγS Assay to Determine EC50 Values
GTPγS binding assays are performed in 96 well microtiter plates (Nunc, 442587) in a final volume of 200 μl, using membrane preparations of CHO cells expressing recombinant human S1P1 receptor. Assay conditions are 20 mM Hepes (Fluka, 54461), 100 mM NaCl (Fluka, 71378), 5 mM MgCl2 (Fluka, 63064), 0.1% BSA (Calbiochem, 126609), 1 μM GDP (Sigma, G-7127), 2.5% DMSO (Fluka, 41644), 50 pM ^35S-GTPγS (Amersham Biosciences, SJ1320). The pH is 7.4. Test compounds are dissolved and diluted in 100% DMSO and pre-incubated at room temperature for 30 min in 150 μl of the above assay buffer, in the absence of ^35S-GTPγS. After addition of 50 μl of ^35S-GTPγS, the assay is incubated for 1 h at rt. The assay is terminated by transfer of the reaction mixture to a Multiscreen plate (Millipore, MAHFC1H60) using a cell harvester from Packard Biosciences, and the plates are washed with ice-cold 10 mM Na2HPO4/NaH2PO4 (70%/30%), dried, sealed at the bottom and, after addition of 25 μl MicroScint20 (Packard Biosciences, order#6013621), sealed on the top. Membrane-bound ^35S-GTPγS is measured with a TopCount from Packard Biosciences.
EC50 is the concentration of agonist inducing 50% of the maximal specific ^35S-GTPγS binding. Specific binding is determined by subtracting non-specific binding from maximal binding. Maximal binding is the amount of cpm bound to the Multiscreen plate in the presence of 10 μM of S1P. Non-specific binding is the amount of binding in the absence of an agonist in the assay.
The EC50 values were determined according to the method described above.

Chain of recombinant human S1P1 receptor (P21453 whole entry): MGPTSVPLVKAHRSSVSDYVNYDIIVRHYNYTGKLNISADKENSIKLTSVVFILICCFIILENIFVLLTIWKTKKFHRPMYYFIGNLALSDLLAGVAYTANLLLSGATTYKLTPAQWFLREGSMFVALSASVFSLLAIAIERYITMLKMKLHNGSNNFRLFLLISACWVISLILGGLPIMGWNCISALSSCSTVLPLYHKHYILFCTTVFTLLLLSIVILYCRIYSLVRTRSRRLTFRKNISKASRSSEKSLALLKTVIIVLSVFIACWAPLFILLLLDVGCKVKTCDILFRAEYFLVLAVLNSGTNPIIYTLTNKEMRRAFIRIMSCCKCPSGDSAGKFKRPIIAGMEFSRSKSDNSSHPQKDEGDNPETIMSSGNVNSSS

| SMILES | pEC50 |
| --- | --- |
| Cc1cc(CCC(=O)c2sc(C)c3c2CCC(C)(C)C3)cc(C)c1OC[C@@H](O)CO [Example 27] | 8.62 |
| Cc1cc(CCC(=O)c2sc(C)c3c2CCC(C)(C)C3)cc(C)c1OCC(O)CNCCC(=O)O (stereo not shown) [Example 41] | 8.55 |
| COc1cc(CCC(=O)c2sc(C)c3c2CCC(C)(C)C3)cc(Cl)c1OCC(O)CNCCC(=O)O (stereo not shown) [Example 62] | 8.23 |
| CCc1sc(C(=O)CCc2cc(C)c(OCCO)c(C)c2)c2c1CC(C)(C)CC2 [Example 66] | 8.60 |
| CCc1sc(C(=O)CCc2cc(C)c(OCC(O)COC)c(C)c2)c2c1CC(C)(C)CC2 (stereo not shown) [Example 71] | 8.23 |
| CCc1sc(C(=O)CCc2cc(C)c(OCC(O)CNC(CO)CO)c(C)c2)c2c1CC(C)(C)CC2 (stereo not shown) [Example 77] | 8.74 |
| CCc1sc(C(=O)CCc2cc(C)c(OCC(O)CNCCN)c(C)c2)c2c1CC(C)(C)CC2 (stereo not shown) [Example 79] | 8.43 |
| CCc1sc(C(=O)CCc2cc(C)c(OCC(O)CNCCC(=O)O)c(C)c2)c2c1CC(C)(C)CC2 (stereo not shown) [Example 80] | 9.22 |
| CCc1sc(C(=O)CCc2cc(C)c(OCCNC(C)C)c(C)c2)c2c1CC(C)(C)CC2 [Example 114] | 8.39 |
| Cc1cc(-c2noc(-c3scc4c3CCC(C)(C)C4)n2)cc(C)c1OCC(O)CNC(=O)CO (stereo not shown) [Example 129] | 8.42 |
| COc1cc(CCC(=O)c2sc(C)c3c2CCC(C)(C)C3)cc(Cl)c1OCC(O)CNC(=O)CO (stereo not shown) [Example 149] | 8.29 |
| CCc1sc(C(=O)CCc2ccc(OCCO)cc2OC)c2c1CC(C)(C)CC2 [Example 210] | 8.96 |
| CCc1sc(C(=O)CCc2ccc(OCCNS(C)(=O)=O)cc2OC)c2c1CC(C)(C)CC2 [Example 230] | 8.54 |
| CCc1sc(C(=O)CCc2cc(Cl)c(OCCNC(=O)CNC)c(OC)c2)c2c1CC(C)(C)CC2 [Example 247] | 8.51 |
| CCc1sc(C(=O)CCc2ccc(OCCCNS(C)(=O)=O)cc2OC)c2c1CC(C)(C)CC2 [Example 269] | 8.74 |
| CCc1sc(C(=O)CCc2cc(C)c(OCC(O)CN)c(C)c2)c2c1CC(C)(C)CC2 (stereo not shown) [Example 271] | 8.77 |
| CCc1sc(C(=O)CCc2cc(C)c(OCC(O)CN3CC(C(=O)O)C3)c(C)c2)c2c1CC(C)(C)CC2 (stereo not shown) [Example 296] | 9.00 |
| CCc1sc(C(=O)CCc2cc(C)c(OCC(O)CNC(=O)CN)c(Cl)c2)c2c1CC(C)(C)CC2 (stereo not shown) [Example 312] | 9.10 |
| CCc1cc(CCC(=O)c2sc(CC)c3c2CCC(C)(C)C3)cc(C)c1CCCN [Example 339, 3-[4-(3-Amino-propyl)-3-ethyl-5-methyl-phenyl]-1-(3-ethyl-5,5-dimethyl-4,5,6,7-tetrahydro-benzo[c]thiophen-1-yl)-propan-1-one] | 8.74 |
| CCc1cc(CCC(=O)c2sc(CC)c3c2CCC(C)(C)C3)cc(C)c1CCCNC(=O)CCNC [Example 351] | 8.47 |
| CCc1sc(C(=O)CCc2ccc(S(=O)(=O)NCCN)cc2)c2c1CC(C)(C)CC2 [Example 356, N-(2-amino-ethyl)-4-[3-(3-ethyl-5,5-dimethyl-4,5,6,7-tetrahydro-benzo[c]thiophen-1-yl)-3-oxo-propyl]-benzenesulfonamide] | 8.10 |
| CCc1sc(C(=O)CNc2ccccc2OC)c2c1CC(C)(C)CC2 [Example 378] | 8.21 |
| CCCc1sc(C(=O)CCc2cc(C)c(OC[C@H](O)CO)c(C)c2)c2c1CC(C)(C)CC2 [Example 414] | 8.38 |
| CCc1sc(C(=O)/C=C/c2cc(C)c(O)c(C)c2)c2c1CC(CC)(CC)CC2 [Example 423, 3-(4-Hydroxy-3,5-dimethyl-phenyl)-1-(3,5,5-triethyl-4,5,6,7-tetrahydro-benzo[c]thiophen-1-yl)-propenone] | 8.12 |
| Cc1cc(-c2noc(-c3scc4c3CCC3(CC3)C4)n2)cc(C)c1OCC(O)CNC(=O)CO (stereo not shown) [Example 457] | 8.21 |
| CCc1cc(CCC(=O)c2sc(C(F)(F)F)c3c2CCC(C)(C)C3)cc(C)c1OCC(O)CNC(=O)CCO (stereo not shown) [Example 489] | 8.54 |
| Cc1cc(CCC(=O)c2sc(C(F)(F)F)c3c2CCC(C)(C)C3)cc(C)c1NCC(O)CO (stereo not shown) [Example 501, 3-[4-(2,3-Dihydroxy-propylamino)-3,5-dimethyl-phenyl]-1-(5,5-dimethyl-3-trifluoromethyl-4,5,6,7-tetrahydro-benzo[c]thiophen-1-yl)-propan-1-one] | 8.59 |
| Cc1cc(C)cc(NCC(=O)c2sc(C(F)(F)F)c3c2CCC(C)(C)C3)c1 [Example 517] | 8.01 |

Source: patent US8039644B2, “Hydrogenated benzo (C) thiophene derivatives as immunomodulators” (Actelion Pharmaceuticals Ltd., priority 2005, dated 2011)
